# In the supplement of paper PMC10307832:
# What was measured:
# Assay in all cases: relative viability (nuclei count vs DMSO), 5 days (fraction); higher = more cells survive
# [1] = test system: SW 1573
# Outline: (§1)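 Values are medians from duplicate plates. Each reflects relative viability, defined as the nuclei count of treated wells over that of vehicle wells. Lung cancer cell lines in 1536-well plates were pin-tool dosed one day after seeding with one drug alone or with a fixed anchor-drug dose plus five library-drug doses (not always all listed) in √10 steps, then fixed, stained and imaged at 4× after 5 days.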
# [2] = test system: NCI-H1793
# Outline: as §1
# [3] = test system: NCI-H596
# Outline: as §1
# [4] = test system: NCI-H1650
# Outline: as §1
# [5] = test system: LC-2-ad
# Outline: as §1
# [6] = test system: SW 900
# Outline: as §1
# [7] = test system: NCI-H2347
# Outline: as §1
# [8] = test system: A-427
# Outline: as §1
# [9] = test system: COR-L23
# Outline: as §1
# [10] = test system: LK-2
# Outline: as §1
# [11] = test system: HCC-44
# Outline: as §1
# [12] = test system: LCLC-103H
# Outline: as §1
# [13] = test system: PC-14
# Outline: as §1
# [14] = test system: NCI-H460
# Outline: as §1
# [15] = test system: LCLC-97TM1
# Outline: as §1
# [16] = test system: NCI-H23
# Outline: as §1
# [17] = test system: 201T
# Outline: as §1
# [18] = test system: LU99A
# Outline: as §1
# [19] = test system: NCI-H727
# Outline: as §1
# [20] = test system: H3255
# Outline: as §1
# [21] = test system: NCI-H1563
# Outline: as §1
# [22] = test system: PC-3 [JPC-3]
# Outline: as §1
# [23] = test system: NCI-H2228
# Outline: as §1
smiles,measurement,setting,value
CCN(CC)CCCCNc1ncc2cc(-c3cc(OC)cc(OC)c3)c(NC(=O)NC(C)(C)C)nc2n1 + CCNC(=O)c1noc(-c2cc(C(C)C)c(O)cc2O)c1-c1ccc(CN2CCOCC2)cc1 [Luminespib] (partner 0.01 µM),relative viability,[1]; first compound 0.01 µM,0.238
same,relative viability,[1]; first compound 0.03162 µM,0.297
same,relative viability,[1]; first compound 0.1 µM,0.239
same,relative viability,[1]; first compound 0.3162 µM,0.177
same,relative viability,[1]; first compound 1 µM,0.172
same,relative viability,[2]; first compound 0.01 µM,0.345
same,relative viability,[2]; first compound 0.03162 µM,0.198
same,relative viability,[2]; first compound 0.1 µM,0.166
same,relative viability,[2]; first compound 0.3162 µM,0.157
same,relative viability,[2]; first compound 1 µM,0.156
same,relative viability,[3]; first compound 0.01 µM,1.03
same,relative viability,[3]; first compound 0.03162 µM,1.05
same,relative viability,[3]; first compound 0.1 µM,1.02
same,relative viability,[3]; first compound 0.3162 µM,1.01
same,relative viability,[3]; first compound 1 µM,0.621
same,relative viability,[4]; first compound 0.01 µM,0.227
same,relative viability,[4]; first compound 0.03162 µM,0.214
same,relative viability,[4]; first compound 0.1 µM,0.204
same,relative viability,[4]; first compound 0.3162 µM,0.206
same,relative viability,[4]; first compound 1 µM,0.203
same,relative viability,[5]; first compound 0.01 µM,0.971
same,relative viability,[5]; first compound 0.03162 µM,1.12
same,relative viability,[5]; first compound 0.1 µM,1.21
same,relative viability,[5]; first compound 0.3162 µM,1.04
same,relative viability,[5]; first compound 1 µM,1.11
same,relative viability,[6]; first compound 0.01 µM,0.172
same,relative viability,[6]; first compound 0.03162 µM,0.182
same,relative viability,[6]; first compound 0.3162 µM,0.15
same,relative viability,[6]; first compound 1 µM,0.188
same,relative viability,[7]; first compound 0.01 µM,0.675
same,relative viability,[7]; first compound 0.03162 µM,0.341
same,relative viability,[7]; first compound 0.1 µM,0.447
same,relative viability,[7]; first compound 0.3162 µM,0.372
same,relative viability,[7]; first compound 1 µM,0.526
same,relative viability,[8]; first compound 0.01 µM,1.01
same,relative viability,[8]; first compound 0.03162 µM,1.01
same,relative viability,[8]; first compound 0.1 µM,1.09
same,relative viability,[8]; first compound 0.3162 µM,1.03
same,relative viability,[8]; first compound 1 µM,0.872
same,relative viability,[9]; first compound 0.01 µM,0.799
same,relative viability,[9]; first compound 0.03162 µM,0.707
same,relative viability,[9]; first compound 0.1 µM,0.955
same,relative viability,[9]; first compound 0.3162 µM,1.03
same,relative viability,[9]; first compound 1 µM,0.639
same,relative viability,[10]; first compound 0.01 µM,0.153
same,relative viability,[10]; first compound 0.03162 µM,0.207
same,relative viability,[10]; first compound 0.1 µM,0.202
same,relative viability,[10]; first compound 0.3162 µM,0.183
same,relative viability,[10]; first compound 1 µM,0.184
same,relative viability,[11]; first compound 0.01 µM,1.07
same,relative viability,[11]; first compound 0.03162 µM,1.06
same,relative viability,[11]; first compound 0.1 µM,0.801
same,relative viability,[11]; first compound 0.3162 µM,1.06
same,relative viability,[11]; first compound 1 µM,0.866
same,relative viability,[12]; first compound 0.01 µM,1.07
same,relative viability,[12]; first compound 0.03162 µM,1.06
same,relative viability,[12]; first compound 0.1 µM,0.924
same,relative viability,[12]; first compound 0.3162 µM,1.01
same,relative viability,[12]; first compound 1 µM,0.739
same,relative viability,[13]; first compound 0.01 µM,0.138
same,relative viability,[13]; first compound 0.03162 µM,0.126
same,relative viability,[13]; first compound 0.1 µM,0.176
same,relative viability,[13]; first compound 0.3162 µM,0.141
same,relative viability,[13]; first compound 1 µM,0.138
same,relative viability,[14]; first compound 0.01 µM,0.0378
same,relative viability,[14]; first compound 0.03162 µM,0.0357
same,relative viability,[14]; first compound 0.1 µM,0.0341
same,relative viability,[14]; first compound 0.3162 µM,0.0358
same,relative viability,[14]; first compound 1 µM,0.0473
same,relative viability,[15]; first compound 0.01 µM,0.743
same,relative viability,[15]; first compound 0.03162 µM,0.867
same,relative viability,[15]; first compound 0.1 µM,1.02
same,relative viability,[15]; first compound 0.3162 µM,0.818
same,relative viability,[15]; first compound 1 µM,0.775
same,relative viability,[16]; first compound 0.01 µM,0.214
same,relative viability,[16]; first compound 0.03162 µM,0.203
same,relative viability,[16]; first compound 0.1 µM,0.241
same,relative viability,[16]; first compound 0.3162 µM,0.202
same,relative viability,[16]; first compound 1 µM,0.205
same,relative viability,[17]; first compound 0.01 µM,1.09
same,relative viability,[17]; first compound 0.03162 µM,0.955
same,relative viability,[17]; first compound 0.1 µM,1.11
same,relative viability,[17]; first compound 0.3162 µM,1.08
same,relative viability,[17]; first compound 1 µM,0.932
same,relative viability,[18]; first compound 0.01 µM,0.301
same,relative viability,[18]; first compound 0.03162 µM,0.251
same,relative viability,[18]; first compound 0.1 µM,0.197
same,relative viability,[18]; first compound 0.3162 µM,0.25
same,relative viability,[18]; first compound 1 µM,0.27
same,relative viability,[19]; first compound 0.01 µM,0.251
same,relative viability,[19]; first compound 0.03162 µM,0.323
same,relative viability,[19]; first compound 0.1 µM,0.28
same,relative viability,[19]; first compound 0.3162 µM,0.278
same,relative viability,[19]; first compound 1 µM,0.327
same,relative viability,[20]; first compound 0.01 µM,0.73
same,relative viability,[20]; first compound 0.03162 µM,0.824
same,relative viability,[20]; first compound 0.1 µM,0.915
same,relative viability,[20]; first compound 0.3162 µM,0.992
same,relative viability,[20]; first compound 1 µM,0.833
same,relative viability,[21]; first compound 0.01 µM,0.537
same,relative viability,[21]; first compound 0.03162 µM,0.532
same,relative viability,[21]; first compound 0.1 µM,0.549
same,relative viability,[21]; first compound 0.3162 µM,0.597
same,relative viability,[21]; first compound 1 µM,0.545
same,relative viability,[22]; first compound 0.01 µM,0.814
same,relative viability,[22]; first compound 0.03162 µM,0.738
same,relative viability,[22]; first compound 0.1 µM,0.725
same,relative viability,[22]; first compound 0.3162 µM,0.746
same,relative viability,[22]; first compound 1 µM,0.662
same,relative viability,[23]; first compound 0.01 µM,0.131
same,relative viability,[23]; first compound 0.03162 µM,0.109
same,relative viability,[23]; first compound 0.1 µM,0.173
same,relative viability,[23]; first compound 0.3162 µM,0.247
same,relative viability,[23]; first compound 1 µM,0.142
